Test results published in ChEMBL document CHEMBL1201862, “PubChem BioAssay data set” (2004).
Calls of active or inactive are those of the source.

Tests used:
Vero [1] = experiment: Vero cell cytotoxicity, cytotoxicity control for flavivirus capping enzyme inhibitors (AID 588742); assay type: functional; conditions: Chlorocebus sabaeus
HT-1080 = experiment: cytotoxicity in HT1080 fibrosarcoma cells, cell-based, fluorescence readout (AID 620); assay type: functional; conditions: Homo sapiens
[2] = cytotoxicity in KRAS-transformed pancreatic duct cells, primary screen, cell-based, fluorescence, HTS (AID 431); assay type: functional; conditions: Homo sapiens;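 note: cell line used: HPDE-C7K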
Vero [3] = experiment: host cell cytotoxicity of antiviral hits, dose response, cytotoxicity control for West Nile virus antiviral project, secondary assay (AID 1650); assay type: functional; conditions: Chlorocebus sabaeus
[4] = cytotoxicity in HPDE-C7 cells, cell-based, fluorescence, HTS (AID 430); assay type: functional; conditions: Homo sapiens
[5] = Luminescence Cell-Based Dose Retest to Confirm Inhibitors of Cancer Stem Cells. [Related pubchem assays (depositor defined):AID2717, AID2721]; assay type: functional; conditions: Homo sapiens
[6] = target: T1, Replicative DNA helicase DnaB (Mycobacterium tuberculosis, UniProt P9WMR3); experiment: DnaB intein splicing inhibitors, dose response, biochemical, cell-free fluorescence (AID 449749); assay type: functional
T1 sequence (P9WMR3 whole entry): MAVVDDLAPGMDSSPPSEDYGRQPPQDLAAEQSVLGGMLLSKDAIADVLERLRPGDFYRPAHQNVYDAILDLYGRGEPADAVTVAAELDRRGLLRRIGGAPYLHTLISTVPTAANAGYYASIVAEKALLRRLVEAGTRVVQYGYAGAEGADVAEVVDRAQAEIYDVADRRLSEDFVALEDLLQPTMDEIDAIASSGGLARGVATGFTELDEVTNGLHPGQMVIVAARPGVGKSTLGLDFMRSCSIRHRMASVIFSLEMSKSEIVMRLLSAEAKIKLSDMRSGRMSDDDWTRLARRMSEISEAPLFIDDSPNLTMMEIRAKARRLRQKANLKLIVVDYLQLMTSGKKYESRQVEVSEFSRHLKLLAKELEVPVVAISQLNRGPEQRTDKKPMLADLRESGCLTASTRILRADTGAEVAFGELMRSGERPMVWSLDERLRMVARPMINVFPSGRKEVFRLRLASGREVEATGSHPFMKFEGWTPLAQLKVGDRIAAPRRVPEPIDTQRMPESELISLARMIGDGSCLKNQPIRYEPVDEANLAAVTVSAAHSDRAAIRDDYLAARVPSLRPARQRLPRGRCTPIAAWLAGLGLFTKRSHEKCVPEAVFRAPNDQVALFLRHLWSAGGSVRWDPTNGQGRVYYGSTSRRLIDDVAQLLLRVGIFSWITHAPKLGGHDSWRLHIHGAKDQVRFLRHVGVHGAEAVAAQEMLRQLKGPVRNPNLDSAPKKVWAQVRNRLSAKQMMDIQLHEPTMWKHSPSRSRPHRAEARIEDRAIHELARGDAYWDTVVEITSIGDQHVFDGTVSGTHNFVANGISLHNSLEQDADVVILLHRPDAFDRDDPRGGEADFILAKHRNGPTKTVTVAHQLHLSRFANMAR

Protein RecA = target: T2, Protein RecA (Mycobacterium tuberculosis, UniProt P9WHJ3); experiment: Fluorescence Cell-Free Homogeneous Dose Retest to Identify Inhibitors of RecA-Intein Splicing Activity. [Related pubchem assays (depositor defined):AID2097, AID2223, AID489010, AID492950]; assay type: functional
T2 sequence (P9WHJ3 whole entry): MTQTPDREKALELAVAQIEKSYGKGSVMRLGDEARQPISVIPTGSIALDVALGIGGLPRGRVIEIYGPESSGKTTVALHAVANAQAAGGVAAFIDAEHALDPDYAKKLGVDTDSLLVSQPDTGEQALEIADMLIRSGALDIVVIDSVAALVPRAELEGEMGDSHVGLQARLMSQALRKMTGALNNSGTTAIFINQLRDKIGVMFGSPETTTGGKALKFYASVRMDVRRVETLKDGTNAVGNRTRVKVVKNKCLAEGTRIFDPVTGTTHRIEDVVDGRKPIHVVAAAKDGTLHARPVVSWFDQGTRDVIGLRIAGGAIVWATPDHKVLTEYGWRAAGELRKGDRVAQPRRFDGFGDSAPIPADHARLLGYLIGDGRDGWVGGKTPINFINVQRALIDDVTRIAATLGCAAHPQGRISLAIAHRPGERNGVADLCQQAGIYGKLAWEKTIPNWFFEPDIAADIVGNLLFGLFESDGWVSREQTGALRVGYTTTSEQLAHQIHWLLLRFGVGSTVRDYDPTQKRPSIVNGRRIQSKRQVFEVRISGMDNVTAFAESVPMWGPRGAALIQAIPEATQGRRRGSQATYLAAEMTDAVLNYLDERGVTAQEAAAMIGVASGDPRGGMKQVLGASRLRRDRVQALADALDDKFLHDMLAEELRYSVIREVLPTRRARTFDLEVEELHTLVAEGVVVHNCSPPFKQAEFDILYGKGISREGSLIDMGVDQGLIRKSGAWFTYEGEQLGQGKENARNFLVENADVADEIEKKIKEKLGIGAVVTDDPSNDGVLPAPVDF

[7] = Shn3 3'UTR reporter inhibitors, dose response, cell-based, Clone20 osteoblasts, firefly luciferase, cherry-picked (AID 624132); assay type: functional;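 note: firefly luciferase luminescence from reporter carrying the Shn3 3'UTR in osteoblasts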
[8] = target: ATP-binding cassette sub-family B member 6 (Homo sapiens, UniProt Q9NP58); experiment: ABCB6 transporter inhibitors, porphyrin accumulation, dose response, flow cytometry, K562-ABCB6 cells, cherry pick 02 (AID 624487); assay type: functional; conditions: read-out: EC50_MICROM
Streptococcus = experiment: Group A Streptococcus viability loss, dose response, counter-screen for streptokinase expression inhibitor project, luminescence, BacTiterGlo (AID 1915); assay type: functional, organism-based;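 note: potency for reduction of bacterial viability or growth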
[9] = control 3'UTR Renilla luciferase suppression, dose response, counter-screen for Shn3 inhibitor project, cell-based, Clone20-Shn3RL, cherry-picked (AID 624133); assay type: functional
[10] = system: Streptococcus sp. 'group A'; experiment: growth inhibition of control SK(-) GAS strain, dose response, counter-screen for streptokinase expression inhibitor project, luminescence, kanamycin, BacTiterGlo, confirmation (AID 1900); assay type: functional, organism-based
[11] = HepG2 cell cytotoxicity, dose response, cytotoxicity control for Shn3 inhibitor project, CellTiter-Glo, cherry-picked (AID 624134); assay type: functional, cell-based
CHO = experiment: cytotoxicity in TLR9-MyD88 CHO cells, dose response, cytotoxicity control for TLR9-MyD88 binding inhibitor project, cell-based, luminescence (AID 588339); assay type: functional, hamster; conditions: Cricetulus griseus;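 note: CHO cells stably coexpressing TLR9 and MyD88 fusions from primary screen; compound exposure lasted 48 hours before viability readout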
Streptokinase A = target: T3, Streptokinase A (Streptococcus pyogenes serotype M1, UniProt P10520); experiment: S. pyogenes streptokinase expression inhibitors, potency, dose response, plasminogen activation absorbance, OD405 (AID 1914); assay type: functional, Streptococcus pyogenes M1 GAS;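 note: secreted streptokinase activity via plasminogen activation per viability signal from cell pellet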
T3 sequence (P10520 whole entry): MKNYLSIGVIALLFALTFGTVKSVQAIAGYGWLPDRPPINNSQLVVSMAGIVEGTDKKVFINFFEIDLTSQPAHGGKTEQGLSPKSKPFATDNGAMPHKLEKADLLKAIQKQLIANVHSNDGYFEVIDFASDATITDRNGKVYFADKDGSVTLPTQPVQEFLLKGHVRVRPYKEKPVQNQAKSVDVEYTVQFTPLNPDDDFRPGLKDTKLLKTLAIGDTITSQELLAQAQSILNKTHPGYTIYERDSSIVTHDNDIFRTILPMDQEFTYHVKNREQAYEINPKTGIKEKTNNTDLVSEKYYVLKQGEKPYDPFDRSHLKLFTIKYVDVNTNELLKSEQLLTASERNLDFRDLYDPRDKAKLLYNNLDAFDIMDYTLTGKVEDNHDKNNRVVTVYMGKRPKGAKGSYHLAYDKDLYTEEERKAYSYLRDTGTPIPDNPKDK

[12] = target: Type-1 angiotensin II receptor (Homo sapiens, UniProt P30556); experiment: AT1 receptor antagonists, dose response, selectivity assay for APJ receptor antagonist project, cell-based, uHTS hits (AID 463214); assay type: functional;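 note: antagonist potency against angiotensin II stimulated AT1 response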
Beta-galactosidase = Beta-galactosidase (Escherichia coli, UniProt Q8VNN2); experiment: PubChem AID 485352; assay type: functional
Sequence of Beta-galactosidase (Q8VNN2 whole entry): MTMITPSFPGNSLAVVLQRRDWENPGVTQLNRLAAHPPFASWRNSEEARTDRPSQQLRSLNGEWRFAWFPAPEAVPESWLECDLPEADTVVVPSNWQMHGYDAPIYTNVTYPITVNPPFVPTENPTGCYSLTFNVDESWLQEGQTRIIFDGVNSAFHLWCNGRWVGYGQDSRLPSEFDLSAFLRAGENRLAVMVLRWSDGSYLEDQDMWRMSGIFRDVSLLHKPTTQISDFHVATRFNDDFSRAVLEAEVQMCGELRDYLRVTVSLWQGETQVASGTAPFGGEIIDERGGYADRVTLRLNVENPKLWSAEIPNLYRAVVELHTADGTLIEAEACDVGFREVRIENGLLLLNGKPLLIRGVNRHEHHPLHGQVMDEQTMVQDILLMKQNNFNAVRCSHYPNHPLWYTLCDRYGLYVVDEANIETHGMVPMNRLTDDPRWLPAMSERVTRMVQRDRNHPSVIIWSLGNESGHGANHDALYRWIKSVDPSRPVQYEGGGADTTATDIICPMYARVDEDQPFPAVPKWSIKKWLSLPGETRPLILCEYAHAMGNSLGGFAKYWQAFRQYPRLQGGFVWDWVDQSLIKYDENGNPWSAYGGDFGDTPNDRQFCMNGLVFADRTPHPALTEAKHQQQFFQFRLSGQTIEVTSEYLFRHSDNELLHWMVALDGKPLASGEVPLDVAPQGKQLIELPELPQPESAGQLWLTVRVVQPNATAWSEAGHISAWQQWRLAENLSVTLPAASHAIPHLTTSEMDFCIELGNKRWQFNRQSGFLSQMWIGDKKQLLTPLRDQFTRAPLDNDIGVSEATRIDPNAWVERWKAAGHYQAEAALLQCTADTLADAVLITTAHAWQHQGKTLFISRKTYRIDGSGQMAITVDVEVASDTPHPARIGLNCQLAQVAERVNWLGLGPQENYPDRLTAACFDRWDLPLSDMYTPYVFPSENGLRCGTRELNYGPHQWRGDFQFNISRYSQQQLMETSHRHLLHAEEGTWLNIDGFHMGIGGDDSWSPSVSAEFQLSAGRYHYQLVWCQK

Sequence of ATP-binding cassette sub-family B member 6 (Q9NP58 whole entry): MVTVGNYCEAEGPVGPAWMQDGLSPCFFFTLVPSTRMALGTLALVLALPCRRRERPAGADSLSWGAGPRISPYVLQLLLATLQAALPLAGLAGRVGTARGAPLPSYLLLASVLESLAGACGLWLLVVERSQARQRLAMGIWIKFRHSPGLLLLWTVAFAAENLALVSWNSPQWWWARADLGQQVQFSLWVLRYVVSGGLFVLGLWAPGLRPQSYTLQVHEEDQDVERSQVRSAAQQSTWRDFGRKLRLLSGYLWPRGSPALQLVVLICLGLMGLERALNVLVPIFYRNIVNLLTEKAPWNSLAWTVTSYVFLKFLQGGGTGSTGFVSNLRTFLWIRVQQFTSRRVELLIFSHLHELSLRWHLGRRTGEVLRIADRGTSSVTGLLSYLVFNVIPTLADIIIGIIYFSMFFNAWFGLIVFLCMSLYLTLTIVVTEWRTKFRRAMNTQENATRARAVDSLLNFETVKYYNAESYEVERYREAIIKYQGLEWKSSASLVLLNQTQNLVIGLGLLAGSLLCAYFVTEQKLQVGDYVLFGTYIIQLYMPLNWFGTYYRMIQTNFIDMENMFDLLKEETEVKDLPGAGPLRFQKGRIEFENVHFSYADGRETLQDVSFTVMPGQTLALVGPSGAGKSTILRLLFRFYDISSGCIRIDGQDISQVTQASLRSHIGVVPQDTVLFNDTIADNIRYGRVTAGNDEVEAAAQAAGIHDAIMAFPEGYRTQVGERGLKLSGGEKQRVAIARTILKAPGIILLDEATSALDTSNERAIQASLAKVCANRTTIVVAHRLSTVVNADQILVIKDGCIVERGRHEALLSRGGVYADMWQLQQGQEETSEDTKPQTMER
Sequence of Type-1 angiotensin II receptor (P30556 whole entry): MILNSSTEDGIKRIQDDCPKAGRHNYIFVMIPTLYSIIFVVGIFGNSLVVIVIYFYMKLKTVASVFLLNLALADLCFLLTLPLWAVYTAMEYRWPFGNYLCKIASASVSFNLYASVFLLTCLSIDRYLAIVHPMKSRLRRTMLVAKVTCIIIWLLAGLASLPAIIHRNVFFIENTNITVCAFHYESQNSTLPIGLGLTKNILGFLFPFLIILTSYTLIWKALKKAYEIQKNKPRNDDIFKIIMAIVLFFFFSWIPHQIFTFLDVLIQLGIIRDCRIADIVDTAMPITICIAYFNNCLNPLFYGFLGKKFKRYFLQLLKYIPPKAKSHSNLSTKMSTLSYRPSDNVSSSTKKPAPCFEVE

Which CC50 (Vero [1]) does the source give for `O=C(NCc1cccs1)c1nc(O)c2nnn(Cc3ccccc3Cl)c2n1` here?
Its CC50 is 7 µM (active).

And the EC50 (HT-1080)?
The EC50 was > 50 µM (not active).

And the EC50 [2]?
Its EC50 is > 20 µM (not active).

And the CC50 (Vero [3])?
The CC50 was 14.6 µM (active).

And the EC50 [4]?
Its EC50 is > 20 µM (not active).

Which AC50 [5] does the source give for `Cc1ccc(NC(=O)c2nc(S(=O)(=O)Cc3ccccc3C)ncc2Cl)cc1C` here?
The AC50 was 2.01 µM (active).

And the AC50 [6]?
The AC50 was > 380 µM (inconclusive).

What about the EC50 (Protein RecA) of the same compound?
Its EC50 is 1.31 µM (active).

And the AC50 [7]?
The AC50 was 0.486 µM (active).

And the EC50 [8]?
Its EC50 is 20.5 µM (active).

And the EC50 (Streptococcus)?
Its EC50 is 22.2 µM (inconclusive).

And the AC50 [9]?
Its AC50 is 8.07 µM (active).

What about the EC50 [10] of the same compound?
Its EC50 is 9.97 µM (active).

And the AC50 [11]?
Its AC50 is 30.8 µM (active).

And the IC50 (CHO)?
The IC50 was 5.02 µM (active).

And the EC50 (Streptokinase A)?
Its EC50 is 1.32 µM (active).

Which IC50 [12] does the source give for `COc1cccc(N2CC(C)Cn3c2nc2c3c(=O)n(CCN3CCOCC3)c(=O)n2C)c1` (stereo not drawn) here?
The IC50 was > 40 µM (not active).

And the EC50 (Beta-galactosidase)?
The EC50 was > 40 µM (inactive).
